{"source": "patent US20240325461A1", "about": "“COMBINATION THERAPIES FOR THE TREATMENT OF DISEASES” (Research Development Foundation, priority 2023, published 2024)", "key": {"[1]": {"system": "ovariectomized female mice", "assay": "Intraperitoneal insulin tolerance test, curative model", "format": "in vivo, C57BL/6J mice", "details": "test on day 52 of administration", "procedure": "(§1) A curative mouse model for osteoporosis was used for experiments, as follows. 16-week old female C57Bl/6J mice were ovariectomized and left for 2 months to develop the symptoms of osteoporosis and postmenopausal weigh gain and glucose intolerance. Administration of the respective treatment was initiated following these 2 months after the ovariectomies, i.e, once the mice already developed the symptoms of the respective metabolic disease.\nInsulin sensitivity (normalized values) was measured by intraperitoneal insulin tolerance test of ovariectomized female mice, administered with the respective treatment starting 2 months flowing the surgery, considered as day 0. Test is performed on day 52 after staring the administration.\nOvariectomy: 16 weeks old C57Bl/6J female mice, obtained through Janvier, were be anesthetised with Xylazin/Ketamin (injection of 120 μl of a mixture of 120 mg/kg ketamine and 16 mg/kg xylazine) and shaved below the ribs on the back side. Betadine was be applied to the area for appropriate disinfection. After a 1-2 cm incision through the skin and the muscle layer just below the ribs, the ovary was localized, the fallopian tube ligated with dissolving suture and the ovary removed. The muscle layer was sutured with dissolving suture, the wound closed with staples and disinfected. The same procedure was/will be performed on the other side. […]"}, "[2]": {"system": "ovariectomized female mice", "assay": "3-point bending test of femur, curative model", "format": "in vivo, C57BL/6J mice", "details": "postmortem, day 60", "from_the_text": "as §1\nOvariectomy: 16 weeks old C57Bl/6J female mice, obtained through Janvier, were be anesthetised with Xylazin/Ketamin (injection of 120 μl of a mixture of 120 mg/kg ketamine and 16 mg/kg xylazine) and shaved below the ribs on the back side. Betadine was be applied to the area for appropriate disinfection. After a 1-2 cm incision through the skin and the muscle layer just below the ribs, the ovary was localized, the fallopian tube ligated with dissolving suture and the ovary removed. The muscle layer was sutured with dissolving suture, the wound closed with staples and disinfected. The same procedure was/will be performed on the other side. A dose of Tamgesic was/will be administered 4 hours after the surgery, and the staples were removed 7 days after the surgery under isoflurane anesthesia. The sham-operated animals underwent the same procedure, without ligating the fallopian tube and the ovary excision. All mice were then kept for additional 2 months after the ovariectomies before starting the respective curative treatments.\nMicrobiota transplantation: Lactobacillus gasseri (DSM 20604) and Parabacteroides goldsteinii (DSM 19948) were pushased from DSMZ. Lactobacillus reuteri (PTA-6475) was obtained from ATCC. […] Freshly prepared bacteria were diluted in anaerobic PBS to a final concentration equivalent to 1.5 OD/ml at 600 nm. 200 ul of this suspension was gavaged every second day to ovariectomized mice, starting 2 months post-surgery for 38 day. From day 38 of the gavage until the day od sacrifice at day 60 the concentration was equivalent to 2 OD/ml at 600 nm, of which 200 ul was gavaged.\nThe amount administered was 80 μg/kg body weight once per week with subcutaneous injection, in total amount of 100-200 μl per injection."}, "[3]": {"system": "Procollagen Type-1 N Terminal Propeptide (P1NP)", "assay": "Plasma bone formation marker P1NP (ELISA)", "format": "in vivo, mice", "details": "P. goldsteinii 1.5 OD/ml, 200 μl every second day, given with alendronate 80 μg/kg BW once a week", "procedure": "Supplementation of P. goldsteinii increases secretion the bone formation marker P1NP, measured at Day 29 (FIG. 18A), or Day 50 (FIG. 18B) after the beginning of the treatment.\nMeasuring plasma bone turnover markers: After 5 h fasting (during the treatment), blood samples were collected from the tail of the mice with microvette capillary tubes containing EDTA and plasma was isolated after centrifuging 10000 g for 10 minutes. Plasma samples are collected during sacrifice (at the end of experiment) by taking 500 μl of blood from terminally anesthetized mice in tubes with 10 μl of […] EDTA, 4 μl of aprotinin (1.3%) and 4 μl of DPP-IV (10 mM), followed by centrifugation as described before. N-terminal pro-collagen type 1 extension pro-peptide (PINP) was measured with an ELISA kit (cat no:AC-33F, Immunodiagnostic Systems) according to manufacturers' instructions."}, "[4]": {"details": "curative model; treatment started 2 months after ovariectomy; alendronate 80 μg/kg/week s.c.; HI P. goldsteinii by gavage every second day"}}}
{"smiles": "NCCCC(O)(P(=O)(O)O)P(=O)(O)O", "note": "[alendronate]", "values": [{"measurement": "Insulin sensitivity (intraperitoneal insulin tolerance test)", "setting": "[1]", "value": "unaffected"}, {"measurement": "Elastic energy of femurs (femur metaphysis, FIG. 10)", "setting": "[2]", "value": "no changes"}, {"measurement": "Elastic energy, femur midshaft", "setting": "[2]", "value": "No changes"}, {"measurement": "Stiffness, femur metaphysis", "setting": "[2]", "value": "corrected ovariectomy induced decreases in stiffness"}, {"measurement": "Stiffness, femur midshaft", "setting": "[2]", "value": "No changes"}, {"measurement": "Ultimate stress, femur metaphysis", "setting": "[2]", "value": "not observed to result in a statistically significant increase"}, {"measurement": "Ultimate stress, femur midshaft", "setting": "[2]", "value": "not observed to result in improvements"}, {"measurement": "P1NP levels after 50 days of treatment", "setting": "[3]", "value": "reduction in P1NP levels"}, {"measurement": "Body weight gain", "setting": "[4]", "value": "did not alter the body weight"}]}
